Laboratory results taken from PMC8881610 (Nature Communications, 2022).

What was measured:
Experiment in all cases: cAMP accumulation assay, GLP-1R WT, mutant or modified constructs
Type in all cases: cell-based
Parameters in all cases: Flag; expressed in transfected cells; host or cells: HEK293T
GLP-1R [1] = target: GLP-1R (Homo sapiens, UniProt P43220, Q210A); conditions: GLP-1R Q210A, HEK293T
Method in brief: (§1)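 HEK293T cells transiently expressing wild-type, mutant or modified human GLP-1R (HA signal peptide constructs) were used. Cells were stimulated with peptide agonists for 40 min at room temperature in HBSS with 0.5 mM IBMX and 0.1% BSA or casein. cAMP was quantified by LANCE Ultra TR-FRET (620/650 nm).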

GLP-1R [2] = target: GLP-1R (Homo sapiens, UniProt P43220, W39A); conditions: HEK-293T, GLP-1R W39A; HEK293T
Chain of GLP-1R (Homo sapiens, UniProt P43220, W39A) (P43220 24-463 W39A): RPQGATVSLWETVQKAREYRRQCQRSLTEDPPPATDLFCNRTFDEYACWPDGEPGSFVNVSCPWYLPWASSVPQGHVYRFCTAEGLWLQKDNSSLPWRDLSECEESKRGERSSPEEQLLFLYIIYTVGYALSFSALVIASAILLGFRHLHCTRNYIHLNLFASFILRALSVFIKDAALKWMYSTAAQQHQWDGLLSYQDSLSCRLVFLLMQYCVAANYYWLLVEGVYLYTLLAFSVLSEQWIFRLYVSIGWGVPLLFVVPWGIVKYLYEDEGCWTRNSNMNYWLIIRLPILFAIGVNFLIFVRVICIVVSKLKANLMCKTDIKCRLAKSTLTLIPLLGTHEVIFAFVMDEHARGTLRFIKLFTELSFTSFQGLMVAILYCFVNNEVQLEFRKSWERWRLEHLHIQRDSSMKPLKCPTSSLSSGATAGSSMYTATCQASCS
Method in brief: as §1

GLP-1R [3] = target: GLP-1R (Homo sapiens, UniProt P43220, W91A); conditions: GLP-1R W91A, HEK293T
Chain of GLP-1R (Homo sapiens, UniProt P43220, W91A) (P43220 24-463 W91A): as the sequence (P43220 24-463 W39A) above, with A16W, W68A counted along it
Method in brief: as §1

GLP-1R [4] = target: GLP-1R (Homo sapiens, UniProt P43220, R134A); conditions: GLP-1R R134A, HEK293T
Chain of GLP-1R (Homo sapiens, UniProt P43220, R134A) (P43220 24-463 R134A): as the sequence (P43220 24-463 W39A) above, with A16W, R111A counted along it
Method in brief: as §1

GLP-1R [5] = target: GLP-1R (Homo sapiens, UniProt P43220, D198A); conditions: GLP-1R D198A, HEK293T
Chain of GLP-1R (Homo sapiens, UniProt P43220, D198A) (P43220 24-463 D198A): as the sequence (P43220 24-463 W39A) above, with A16W, D175A counted along it
Method in brief: as §1

GLP-1R [6] = target: GLP-1R (Homo sapiens, UniProt P43220, Y205A); conditions: GLP-1R Y205A, HEK293T
Chain of GLP-1R (Homo sapiens, UniProt P43220, Y205A) (P43220 24-463 Y205A): as the sequence (P43220 24-463 W39A) above, with A16W, Y182A counted along it
Method in brief: as §1

GLP-1R [7] = target: GLP-1R (Homo sapiens, UniProt P43220, D198A/K202A/Y145A); conditions: GLP-1R Y145A/D198A/K202A, HEK293T
Chain of GLP-1R (Homo sapiens, UniProt P43220, D198A/K202A/Y145A) (P43220 24-463 Y145A/D198A/K202A): as the sequence (P43220 24-463 W39A) above, with A16W, Y122A, D175A, K179A counted along it
Method in brief: as §1

GLP-1R [8] = target: GLP-1R (Homo sapiens, UniProt P43220, K202A); conditions: GLP-1R K202A, HEK293T
Chain of GLP-1R (Homo sapiens, UniProt P43220, K202A) (P43220 24-463 K202A): as the sequence (P43220 24-463 W39A) above, with A16W, K179A counted along it
Method in brief: as §1

[9] = read-out: cAMP pEC50 (converted)

Chain of GLP-1R (Homo sapiens, UniProt P43220, Q210A) (P43220 24-463 Q210A): as the sequence (P43220 24-463 W39A) above, with A16W, Q187A counted along it

SMILES: CCCCCCCCCCCCCCCC(=O)N[C@@H](CCC(=O)NCCCC[C@H](NC(=O)[C@H](CC(=O)O)NC(=O)[C@H](CO)NC(=O)[C@@H](NC(=O)[C@H](Cc1ccccc1)NC(=O)[C@@H](NC(=O)CNC(=O)[C@H](CCC(N)=O)NC(=O)C(C)(C)NC(=O)[C@@H](N)Cc1c[nH]cn1)[C@@H](C)O)[C@@H](C)O)C(=O)N[C@@H](CO)C(=O)N[C@@H](CCCCN)C(=O)N[C@@H](Cc1ccc(O)cc1)C(=O)N[C@@H](CC(C)C)C(=O)N[C@@H](CC(=O)O)C(=O)N[C@@H](CCC(=O)O)C(=O)N[C@@H](CCCNC(=N)N)C(=O)N[C@@H](C)C(=O)N[C@@H](C)C(=O)N[C@@H](CCC(N)=O)C(=O)N[C@@H](CC(=O)O)C(=O)N[C@@H](Cc1ccccc1)C(=O)N[C@H](C(=O)N[C@@H](CCC(N)=O)C(=O)N[C@@H](Cc1c[nH]c2ccccc12)C(=O)N[C@@H](CC(C)C)C(=O)N[C@@H](CC(C)C)C(=O)N[C@@H](CC(=O)O)C(=O)NCC(=O)NCC(=O)N1CCC[C@H]1C(=O)N[C@@H](CO)C(=O)N[C@@H](CO)C(=O)NCC(=O)N[C@@H](C)C(=O)N1CCC[C@H]1C(=O)N1CCC[C@H]1C(=O)N1CCC[C@H]1C(=O)N[C@@H](CO)C(N)=O)C(C)C)C(=O)O [Peptide 20]
- EC50 (GLP-1R [1]; [9]): 5.62 pM
- Emax (GLP-1R [1]; HEK-293T): 102 ± 1.27%
- Emax (GLP-1R [2]): 100 ± 1.04%
- EC50 (GLP-1R [3]; [9]): 6.03 pM
- Emax (GLP-1R [3]; HEK-293T): 100 ± 1.33%
- EC50 (GLP-1R [4]; [9]): 6.61 pM
- Emax (GLP-1R [4]; HEK-293T): 101 ± 1.08%
- EC50 (GLP-1R [5]; [9]): 4.47 pM
- Emax (GLP-1R [5]; HEK-293T): 99.9 ± 1.82%
- EC50 (GLP-1R [6]; [9]): 8.51 pM
- Emax (GLP-1R [6]; HEK-293T): 101 ± 1.08%
- EC50 (GLP-1R [7]; [9]): 38.9 pM
- Emax (GLP-1R [7]; HEK-293T): 99.9 ± 1.67%
- EC50 (GLP-1R [8]; [9]): 2.57 pM
- Emax (GLP-1R [8]; HEK-293T): 100 ± 1.97%
